Results published in patent publication US7491794B2, “Macrocyclic compounds as inhibitors of viral replication” (Intermune, Inc., priority 2003, dated 2009).

Target: T1, NS3-NS4 protease (Hepatitis C virus genotype 1a, UniProt P27958)
T1 construct: Recombinant E. coli or Baculovirus full-length NS3 was diluted to 3.33 μM with assay buffer; made in house; host or cells: E. coli or baculovirus (BV) system
Experiment: NS3-NS4 protease assay / NS3 inhibition assay, Section D
Type: biochemical
Method: NS3-NS4 Protease Assay NS3 complex formation with NS4A-2.
Recombinant E. coli or Baculovirus full-length NS3 was diluted to 3.33 μM with assay buffer and transferred material to an eppendorf tube and place in water bath in 4° C. refrigerator. The appropriate amount of NS4A-2 to 8.3 mM in assay buffer was added to equal the volume of NS3 in step 2.1.1 (conversion factor −3.8 mg/272 μL assay buffer). The material was transferred to an eppendorf tube and place in water bath in 4° C. refrigerator.
After equilibration to 4° C., equal volumes of NS3 and NS4A-2 solutions were combined in an eppendorf tube, mix gently with a manual pipettor, and incubate mixture for 15 minutes in the 4° C. water bath. Final concentrations in the mixture are 1.67 μM NS3, 4.15 mM NS4A-2 (2485-fold molar excess NS4A-2).
After 15 minutes at 4° C., the NS3/NS4A-2 eppendorf tube was removed and placed in a room temperature water bath for 10 minutes. NS3/NS4A-2 was alliquoted at appropriate volumes and store at −80° C. (E. coli NS3 run at 2 nM in assay, aliquot at 25 μL. BV NS3 run at 3 nM in assay, aliquot at 30 μL).
Sample compounds were dissolved to 10 mM in DMSO then diluted to 2.5 mM (1:4) in DMSO.
The E. coli. NS3/NS4A-2 was diluted to 4 nM NS3 (1:417.5 of 1.67 μM stock−18 μL 1.67 μM stock+7497 μL assay buffer).
The BV NS3/NS4A-2 was diluted to 6 nM NS3 (1:278.3 of 1.67 μM stock−24 μL 1.67 μM stock+6655 μL assay buffer).
Using the manual multichannel pipettor, careful not to introduce bubbles into the plate, add 50 μL assay buffer to wells A01-H01 of a black Costar 96-well polypropylene storage plate.
Using the manual multichannel pipettor, careful not to introduce bubbles into the plate, add 50 μL of diluted NS3/NS4A-2 from step 2.2.6 to wells A02-H12 of plate in step 2.2.7.
Using the manual multichannel pipettor, careful not to introduce bubbles into the plate, transfer 25 μL of the wells in drug dilution plate in step 2.2.5 to corresponding wells in assay plate in step 2.2.8. Change tips on multichannel pipettor for each row of compounds transferred.
Using the manual multichannel pipettor, careful not to introduce bubbles into the plate, mix the wells from the assay plate in step 2.2.9 by aspirating and dispensing 35 μL of the 75 μL in each well five times. Change tips on multichannel pipettor for each row of wells mixed.
Cover plate with a polystyrene plate lid and pre-incubate the plate from step 2.2.10 containing NS3 protease and sample compounds 10 minutes at room temperature.
While plate from step 2.2.11 is pre-incubating, dilute RETS1 substrate in a 15 mL polypropylene centrifuge tube.
Dilute RETS1 substrate to 8 μM (1:80.75 of 646 μM stock−65 μL 646 μM stock+5184 μL assay buffer).
After the plate in step is done pre-incubating, and using the manual multichannel, add 25 μL of substrate to all wells on the plate. Quickly mix the plate as in step 2.2.10, mixing 65 μL of the 100 μL in the wells.
Read the plate in kinetic mode on the Molecular Devices SpectraMax Gemini XS plate reader. Reader settings: Read time: 30 minutes, Interval: 36 seconds, Reads: 51, Excitation k: 335 nm, Emission k: 495 nm, cutoff: 475 nm, Automix: off, Calibrate: once, PMT: high, Reads/well: 6, Vmax pts: 21 or 28/51 depending on length of linearity of reaction.
IC50s are determined using a four parameter curve fit equation, and converted to Ki's using the following Km's:
where Ki=IC50/(1+[S]/Km))

T1 sequence (P27958 1027-1657): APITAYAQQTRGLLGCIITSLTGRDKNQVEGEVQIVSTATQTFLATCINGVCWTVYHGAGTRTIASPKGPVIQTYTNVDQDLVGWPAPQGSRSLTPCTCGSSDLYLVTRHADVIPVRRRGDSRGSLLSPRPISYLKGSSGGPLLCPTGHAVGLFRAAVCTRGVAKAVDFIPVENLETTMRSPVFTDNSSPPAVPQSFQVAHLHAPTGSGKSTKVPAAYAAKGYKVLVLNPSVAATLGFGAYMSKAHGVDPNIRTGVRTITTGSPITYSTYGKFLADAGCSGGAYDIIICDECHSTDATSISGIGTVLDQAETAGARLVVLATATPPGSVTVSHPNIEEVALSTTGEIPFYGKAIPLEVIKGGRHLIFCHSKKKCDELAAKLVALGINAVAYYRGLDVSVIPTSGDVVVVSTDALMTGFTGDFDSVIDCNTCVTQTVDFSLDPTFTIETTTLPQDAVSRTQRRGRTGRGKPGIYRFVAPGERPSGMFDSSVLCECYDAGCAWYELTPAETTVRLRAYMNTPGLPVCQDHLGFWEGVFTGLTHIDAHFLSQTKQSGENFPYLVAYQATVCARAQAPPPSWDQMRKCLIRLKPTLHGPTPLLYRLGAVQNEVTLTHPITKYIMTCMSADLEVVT

SMILES | IC50
CC(C)(C)OC(=O)N[C@H]1CCCCC/C=C\[C@@H]2C[C@@]2(C(=O)NS(=O)(=O)C2CC2)NC(=O)[C@@H]2C[C@@H](NC(=O)c3cc4cc(OC(F)(F)F)ccc4[nH]3)CN2C1=O [Example 36] | < 100 nM
COc1cc2cc(C(=O)N[C@@H]3C[C@H]4C(=O)N[C@]5(C(=O)NS(=O)(=O)C6CC6)C[C@H]5/C=C\CCCCC[C@H](NC(=O)OC(C)(C)C)C(=O)N4C3)[nH]c2cc1OC [Example 37] | < 100 nM
CC(C)(C)OC(=O)N[C@H]1CCCCC/C=C\[C@@H]2C[C@@]2(C(=O)NS(=O)(=O)C2CC2)NC(=O)[C@@H]2C[C@@H](NC(=O)c3ccc4cc[nH]c4c3)CN2C1=O [Example 38] | < 100 nM
CC(C)(C)OC(=O)N[C@H]1CCCCC/C=C\[C@@H]2C[C@@]2(C(=O)NS(=O)(=O)C2CC2)NC(=O)[C@@H]2C[C@@H](NC(=O)c3cc4ccccc4o3)CN2C1=O [Example 39] | < 100 nM
CC(C)(C)OC(=O)N[C@H]1CCCCC/C=C\[C@@H]2C[C@@]2(C(=O)NS(=O)(=O)C2CC2)NC(=O)[C@@H]2C[C@@H](NC(=O)c3cc4cc(Cl)ccc4o3)CN2C1=O [Example 40] | < 100 nM
COc1ccc2oc(C(=O)N[C@@H]3C[C@H]4C(=O)N[C@]5(C(=O)NS(=O)(=O)C6CC6)C[C@H]5/C=C\CCCCC[C@H](NC(=O)OC(C)(C)C)C(=O)N4C3)cc2c1 [Example 41] | < 100 nM
COc1cccc2cc(C(=O)N[C@@H]3C[C@H]4C(=O)N[C@]5(C(=O)NS(=O)(=O)C6CC6)C[C@H]5/C=C\CCCCC[C@H](NC(=O)OC(C)(C)C)C(=O)N4C3)oc12 [Example 42] | < 100 nM
CC(C)(C)OC(=O)N[C@H]1CCCCC/C=C\[C@@H]2C[C@@]2(C(=O)NS(=O)(=O)C2CC2)NC(=O)[C@@H]2C[C@@H](NC(=O)c3cc4ccccc4s3)CN2C1=O [Example 43] | < 100 nM
CC(C)(C)OC(=O)N[C@H]1CCCCC/C=C\[C@@H]2C[C@@]2(C(=O)NS(=O)(=O)C2CC2)NC(=O)[C@@H]2C[C@@H](NC(=O)c3sc4cc(F)ccc4c3Cl)CN2C1=O [Example 44] | < 100 nM
CC(C)(C)OC(=O)N[C@H]1CCCCC/C=C\[C@@H]2C[C@@]2(C(=O)NS(=O)(=O)C2CC2)NC(=O)[C@@H]2C[C@@H](NC(=O)c3sc4cccc(Cl)c4c3Cl)CN2C1=O [Example 45] | < 100 nM
CC(C)(C)OC(=O)N[C@H]1CCCCC/C=C\[C@@H]2C[C@@]2(C(=O)NS(=O)(=O)C2CC2)NC(=O)[C@@H]2C[C@@H](NC(=O)c3nc4ccccc4[nH]3)CN2C1=O [Example 47] | < 100 nM
CC(C)(C)NC(=O)N[C@H]1CCCCC/C=C\[C@@H]2C[C@@]2(C(=O)NS(=O)(=O)C2CC2)NC(=O)[C@@H]2C[C@@H](NC(=O)c3sc4ccccc4c3Cl)CN2C1=O [Example 49] | < 100 nM
O=C(CCC(F)(F)F)N[C@H]1CCCCC/C=C\[C@@H]2C[C@@]2(C(=O)NS(=O)(=O)C2CC2)NC(=O)[C@@H]2C[C@@H](NC(=O)c3sc4ccccc4c3Cl)CN2C1=O [Example 50] | < 100 nM
CC(C)(C)CC(=O)N[C@H]1CCCCC/C=C\[C@@H]2C[C@@]2(C(=O)NS(=O)(=O)C2CC2)NC(=O)[C@@H]2C[C@@H](NC(=O)c3sc4ccccc4c3Cl)CN2C1=O [Example 51] | < 100 nM
O=C(N[C@H]1CCCCC/C=C\[C@@H]2C[C@@]2(C(=O)NS(=O)(=O)C2CC2)NC(=O)[C@@H]2C[C@@H](NC(=O)c3sc4ccccc4c3Cl)CN2C1=O)OCC1CC1 [Example 52] | < 100 nM
CC(CC(=O)N[C@H]1CCCCC/C=C\[C@@H]2C[C@@]2(C(=O)NS(=O)(=O)C2CC2)NC(=O)[C@@H]2C[C@@H](NC(=O)c3sc4ccccc4c3Cl)CN2C1=O)C(F)(F)F (some centres unmarked) [Example 53] | < 100 nM

SMILES | IC50
CC(C)(C)NC(=O)N[C@H]1CCCCC/C=C\[C@@H]2C[C@@]2(C(=O)NS(=O)(=O)C2CC2)NC(=O)[C@@H]2C[C@@H](NC(=O)c3cc4ccccc4s3)CN2C1=O [Example 54] | < 100 nM
CC(C)(C)NC(=O)N[C@H]1CCCCC/C=C\[C@@H]2C[C@@]2(C(=O)NS(=O)(=O)C2CC2)NC(=O)[C@@H]2C[C@@H](NC(=O)c3sc4cc(F)ccc4c3Cl)CN2C1=O [Example 55] | < 100 nM
COc1ccc(C(=O)N[C@@H]2C[C@H]3C(=O)N[C@]4(C(=O)NS(=O)(=O)C5CC5)C[C@H]4/C=C\CCCCC[C@H](NC(=O)OC4CCCC4)C(=O)N3C2)cc1 [Example 56] | < 100 nM
COc1ccc(C(=O)N[C@@H]2C[C@H]3C(=O)N[C@]4(C(=O)NS(=O)(=O)C5CC5)C[C@H]4/C=C\CCCCC[C@H](NC(=O)OC4CCCC4)C(=O)N3C2)cc1C(F)(F)F [Example 57] | < 100 nM
COc1ccc(C(=O)N[C@@H]2C[C@H]3C(=O)N[C@]4(C(=O)NS(=O)(=O)C5CC5)C[C@H]4/C=C\CCCCC[C@H](NC(=O)NC4CCCC4)C(=O)N3C2)cc1C(F)(F)F [Example 58] | < 100 nM
CC(C)(C)OC(=O)N[C@H]1CCCCC/C=C\[C@@H]2C[C@@]2(C(=O)O)NC(=O)[C@@H]2C[C@@H](NC(=O)c3cc4ccccc4s3)CN2C1=O [Example 59] | < 10000 nM
CC(C)(C)OC(=O)N[C@H]1CCCCC/C=C\[C@@H]2C[C@@]2(C(=O)O)NC(=O)[C@@H]2C[C@@H](NC(=O)c3ccccc3)CN2C1=O [Example 60] | < 10000 nM
COc1ccc(C(=O)N[C@@H]2C[C@H]3C(=O)N[C@]4(C(=O)O)C[C@H]4/C=C\CCCCC[C@H](NC(=O)OC(C)(C)C)C(=O)N3C2)cc1 [Example 61] | < 10000 nM
CC(C)(C)OC(=O)N[C@H]1CCCCC/C=C\[C@@H]2C[C@@]2(C(=O)O)NC(=O)[C@@H]2C[C@@H](NC(=O)c3ccc4ccccc4c3)CN2C1=O [Example 62] | < 1000 nM
CC(C)(C)OC(=O)N[C@H]1CCCCC/C=C\[C@@H]2C[C@@]2(C(=O)O)NC(=O)[C@@H]2C[C@@H](NC(=O)c3cc4ccccc4[nH]3)CN2C1=O [Example 63] | < 1000 nM
CC(C)(C)OC(=O)N[C@H]1CCCCC/C=C\[C@@H]2C[C@@]2(C(=O)O)NC(=O)[C@@H]2C[C@@H](NC(=O)c3sc4ccccc4c3Cl)CN2C1=O [Example 64] | < 1000 nM
CC(C)(C)OC(=O)N[C@H]1CCCCC/C=C\[C@@H]2C[C@@]2(C(=O)O)NC(=O)[C@@H]2C[C@@H](NC(=O)c3sc4cc(F)ccc4c3Cl)CN2C1=O [Example 65] | < 1000 nM
CC(C)(C)OC(=O)N[C@H]1CCCCC/C=C\[C@@H]2C[C@@]2(C(=O)O)NC(=O)[C@@H]2C[C@@H](NC(=O)c3cc4ccccc4o3)CN2C1=O [Example 66] | < 1000 nM
CC(C)(C)OC(=O)N[C@H]1CCCCC/C=C\[C@@H]2C[C@@]2(C(=O)O)NC(=O)[C@@H]2C[C@@H](NC(=O)c3ccc4cccnc4c3)CN2C1=O [Example 67] | < 10000 nM
CCc1ccc(C(=O)N[C@@H]2C[C@H]3C(=O)N[C@]4(C(=O)O)C[C@H]4/C=C\CCCCC[C@H](NC(=O)OC(C)(C)C)C(=O)N3C2)cc1 [Example 68] | < 10000 nM
COc1ccc(C(=O)N[C@@H]2C[C@H]3C(=O)N[C@]4(C(=O)O)C[C@H]4/C=C\CCCCC[C@H](NC(=O)OC(C)(C)C)C(=O)N3C2)cc1C(F)(F)F [Example 69] | < 10000 nM
